Source: paper PMC2259182, “Identification of biomarkers for the antiangiogenic and antitumour activity of the superoxide dismutase 1 (SOD1) inhibitor tetrathiomolybdate (ATN-224)” (British Journal of Cancer, 2008)

Molecular target: T1, Purified bovine SOD1 (Bos taurus, UniProt P00442)
T1 construct: commercial purified enzyme (Sigma)
Assay: WST-1 reduction by xanthine oxidase-generated superoxide
Assay type: biochemical

T1 sequence (P00442 2-152): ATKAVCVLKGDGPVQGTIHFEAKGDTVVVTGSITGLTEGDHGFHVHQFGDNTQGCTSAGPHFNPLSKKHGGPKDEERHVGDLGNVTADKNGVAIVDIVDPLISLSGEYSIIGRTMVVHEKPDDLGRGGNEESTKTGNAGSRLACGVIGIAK

`[S]=[Mo](=[S])([SH])[SH]` [ATN-224] showed an IC50 of 2030 nM.
